{"source": "patent US20110065087A1", "about": "“NOVEL HIV TARGETS” (priority 2007, published 2011)", "system": "HXB2 HIV", "experiment": "Rescue of 3′UTR siRNA-mediated inhibition of HIV replication by non-targeted cDNA, β-galactosidase readout", "format": "cell-based", "details": "LIG3 cDNA lacking the 3′UTR; FIG. 7", "note": "d = 2'-deoxy (DNA); r = 2'-OH (RNA)"}
{"substance": "CAUACUCUCCUUUACCAUAdTdT (CAUACUCUCCUUUACCAUATT; siRNA; sugars from the 5' end r19 d2, backbone not given here) [LIG3 siRNA #8, siRNA targeting the 3′UTR of LIG3]", "values": [{"measurement": "p, difference between siRNA+vector-transfected and siRNA+cDNA transfected", "result": "< 0.05"}]}
